Data published in patent publication US12343326B2, “Psychoactive medicines and their use for treating psychiatric and neurological conditions and disorders” (Transcend Therapeutics, Inc., priority 2021, dated 2025).

Columns and labels:
Experiment in all cases: β-arrestin based GPCR screen (PathHunter / GPCRmax), agonist mode
Assay type in all cases: cell-based
Design in all cases: host or cells: PathHunter cell lines
168 GPCRs [1] = biological target: 168 GPCRs (Homo sapiens, UniProt P34998)
Protocol: (§1) For agonist determination, cells were incubated with sample to induce response. […] Vehicle concentration was 1%.

168 GPCRs [2] = biological target: 168 GPCRs (Homo sapiens, UniProt P35408)
Chain of 168 GPCRs (Homo sapiens, UniProt P35408) (P35408 whole entry): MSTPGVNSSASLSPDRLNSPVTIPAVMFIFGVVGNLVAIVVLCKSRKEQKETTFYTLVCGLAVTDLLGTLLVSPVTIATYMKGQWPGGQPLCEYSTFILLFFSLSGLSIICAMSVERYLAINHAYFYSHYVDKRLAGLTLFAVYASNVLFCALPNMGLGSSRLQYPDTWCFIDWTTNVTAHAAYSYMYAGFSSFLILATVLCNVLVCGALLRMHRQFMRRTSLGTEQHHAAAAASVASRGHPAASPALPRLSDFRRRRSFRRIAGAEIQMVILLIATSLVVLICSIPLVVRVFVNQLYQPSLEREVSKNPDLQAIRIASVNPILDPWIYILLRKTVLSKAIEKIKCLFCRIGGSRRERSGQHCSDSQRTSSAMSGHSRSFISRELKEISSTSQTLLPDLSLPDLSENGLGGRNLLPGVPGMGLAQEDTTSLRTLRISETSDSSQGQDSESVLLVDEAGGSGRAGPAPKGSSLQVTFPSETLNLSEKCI
Protocol: as §1

168 GPCRs [3] = biological target: 168 GPCRs (Homo sapiens, UniProt P32249)
Chain of 168 GPCRs (Homo sapiens, UniProt P32249) (P32249 whole entry): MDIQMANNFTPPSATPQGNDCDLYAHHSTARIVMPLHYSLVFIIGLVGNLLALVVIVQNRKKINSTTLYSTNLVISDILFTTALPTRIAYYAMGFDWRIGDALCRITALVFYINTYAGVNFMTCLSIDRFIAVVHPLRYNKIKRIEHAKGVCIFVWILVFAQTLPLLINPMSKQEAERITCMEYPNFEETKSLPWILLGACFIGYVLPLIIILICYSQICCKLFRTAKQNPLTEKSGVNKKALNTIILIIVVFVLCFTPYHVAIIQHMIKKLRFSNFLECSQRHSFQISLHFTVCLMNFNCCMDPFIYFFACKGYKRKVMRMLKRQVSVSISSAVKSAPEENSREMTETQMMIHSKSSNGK
Protocol: as §1

168 GPCRs [4] = biological target: 168 GPCRs (Homo sapiens, UniProt P48546); conditions: GIPR
Protocol: as §1

168 GPCRs [5] = biological target: 168 GPCRs (Homo sapiens, UniProt P41597); conditions: CCR2, Agonist
Protocol: as §1

168 GPCRs [6] = biological target: 168 GPCRs (Homo sapiens, UniProt Q9H1C0)
Chain of 168 GPCRs (Homo sapiens, UniProt Q9H1C0) (Q9H1C0 whole entry): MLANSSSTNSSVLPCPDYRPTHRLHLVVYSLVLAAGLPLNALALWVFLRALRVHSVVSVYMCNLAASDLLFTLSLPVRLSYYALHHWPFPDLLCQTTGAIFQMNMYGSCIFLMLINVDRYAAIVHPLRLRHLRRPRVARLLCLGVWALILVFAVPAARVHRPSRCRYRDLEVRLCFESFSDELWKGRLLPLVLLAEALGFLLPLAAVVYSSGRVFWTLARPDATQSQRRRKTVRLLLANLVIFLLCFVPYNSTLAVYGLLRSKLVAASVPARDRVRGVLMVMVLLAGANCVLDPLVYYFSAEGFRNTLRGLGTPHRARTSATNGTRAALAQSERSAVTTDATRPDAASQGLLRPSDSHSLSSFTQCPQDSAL
Protocol: as §1

168 GPCRs [7] = biological target: 168 GPCRs (Homo sapiens, UniProt P47871); conditions: GCGR
Protocol: as §1

168 GPCRs [8] = biological target: 168 GPCRs (Homo sapiens, UniProt Q96P65)
Protocol: as §1

168 GPCRs [9] = biological target: 168 GPCRs (Homo sapiens, UniProt Q9HC97)
Chain of 168 GPCRs (Homo sapiens, UniProt Q9HC97) (Q9HC97 whole entry): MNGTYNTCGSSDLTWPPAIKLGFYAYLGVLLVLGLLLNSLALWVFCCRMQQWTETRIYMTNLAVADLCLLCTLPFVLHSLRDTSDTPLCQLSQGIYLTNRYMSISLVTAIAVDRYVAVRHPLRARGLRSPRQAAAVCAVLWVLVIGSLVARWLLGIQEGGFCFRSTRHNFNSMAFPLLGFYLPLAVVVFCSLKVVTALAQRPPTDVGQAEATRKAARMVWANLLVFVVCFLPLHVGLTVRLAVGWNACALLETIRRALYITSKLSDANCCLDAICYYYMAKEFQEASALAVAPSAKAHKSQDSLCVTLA
Protocol: as §1

168 GPCRs [10] = biological target: 168 GPCRs (Homo sapiens, UniProt P43119); conditions: PTGIR
Protocol: as §1

168 GPCRs [11] = biological target: 168 GPCRs (Homo sapiens, UniProt P25929); conditions: NPY1R
Protocol: as §1

168 GPCRs [12] = biological target: 168 GPCRs (Homo sapiens, UniProt P29371)
Chain of 168 GPCRs (Homo sapiens, UniProt P29371) (P29371 whole entry): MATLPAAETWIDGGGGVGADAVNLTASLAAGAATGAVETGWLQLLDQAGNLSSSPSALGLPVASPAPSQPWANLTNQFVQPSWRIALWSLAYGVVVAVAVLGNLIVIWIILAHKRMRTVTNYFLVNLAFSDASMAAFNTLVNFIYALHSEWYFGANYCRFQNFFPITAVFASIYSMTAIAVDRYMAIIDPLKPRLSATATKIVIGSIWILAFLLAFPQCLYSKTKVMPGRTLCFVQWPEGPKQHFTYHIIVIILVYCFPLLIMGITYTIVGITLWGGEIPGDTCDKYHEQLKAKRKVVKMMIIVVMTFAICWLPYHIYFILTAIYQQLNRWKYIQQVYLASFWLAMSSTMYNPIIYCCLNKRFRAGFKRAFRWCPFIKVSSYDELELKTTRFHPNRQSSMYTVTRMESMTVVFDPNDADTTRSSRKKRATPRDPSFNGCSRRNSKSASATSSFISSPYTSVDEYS
Protocol: as §1

168 GPCRs [13] = biological target: T1, 168 GPCRs (Homo sapiens, UniProt P0DMS8); conditions: ADORA3, Agonist
T1 sequence (P0DMS8 1-318): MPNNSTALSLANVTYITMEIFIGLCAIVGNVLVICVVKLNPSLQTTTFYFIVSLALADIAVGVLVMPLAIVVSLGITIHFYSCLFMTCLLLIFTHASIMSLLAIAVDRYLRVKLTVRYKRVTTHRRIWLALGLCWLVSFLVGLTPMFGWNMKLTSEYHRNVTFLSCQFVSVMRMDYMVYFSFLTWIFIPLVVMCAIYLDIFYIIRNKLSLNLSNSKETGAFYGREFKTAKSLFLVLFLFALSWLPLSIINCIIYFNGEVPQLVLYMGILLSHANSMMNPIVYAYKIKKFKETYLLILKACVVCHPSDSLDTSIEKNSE
Protocol: as §1

168 GPCRs [14] = biological target: 168 GPCRs (Homo sapiens, UniProt Q9UBY5)
Chain of 168 GPCRs (Homo sapiens, UniProt Q9UBY5) (Q9UBY5 whole entry): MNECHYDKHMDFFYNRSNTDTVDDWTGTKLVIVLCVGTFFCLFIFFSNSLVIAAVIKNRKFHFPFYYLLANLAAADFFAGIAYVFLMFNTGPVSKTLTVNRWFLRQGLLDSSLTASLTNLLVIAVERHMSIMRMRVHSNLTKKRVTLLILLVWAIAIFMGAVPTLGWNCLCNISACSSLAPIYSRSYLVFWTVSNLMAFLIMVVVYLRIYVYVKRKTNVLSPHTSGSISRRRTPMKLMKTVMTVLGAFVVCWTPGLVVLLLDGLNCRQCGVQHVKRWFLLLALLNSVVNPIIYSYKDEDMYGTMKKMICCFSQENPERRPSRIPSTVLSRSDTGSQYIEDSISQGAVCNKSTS
Protocol: as §1

168 GPCRs [15] = biological target: 168 GPCRs (Homo sapiens, UniProt P28566); conditions: HTR1E
Chain of 168 GPCRs (Homo sapiens, UniProt P28566) (P28566 whole entry): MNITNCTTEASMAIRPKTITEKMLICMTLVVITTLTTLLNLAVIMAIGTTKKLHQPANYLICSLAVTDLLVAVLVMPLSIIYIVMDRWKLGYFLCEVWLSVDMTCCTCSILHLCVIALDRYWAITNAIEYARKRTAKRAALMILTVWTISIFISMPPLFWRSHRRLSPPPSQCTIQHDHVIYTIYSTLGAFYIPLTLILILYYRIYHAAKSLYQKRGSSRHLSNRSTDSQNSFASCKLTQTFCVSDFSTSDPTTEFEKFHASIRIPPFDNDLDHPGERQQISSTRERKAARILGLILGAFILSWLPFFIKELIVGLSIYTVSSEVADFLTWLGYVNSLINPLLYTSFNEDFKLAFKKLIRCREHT
Protocol: as §1

168 GPCRs [16] = biological target: 168 GPCRs (Homo sapiens, UniProt P25106)
Protocol: as §1

168 GPCRs [17] = biological target: 168 GPCRs (Homo sapiens, UniProt Q99705)
Chain of 168 GPCRs (Homo sapiens, UniProt Q99705) (Q99705 whole entry): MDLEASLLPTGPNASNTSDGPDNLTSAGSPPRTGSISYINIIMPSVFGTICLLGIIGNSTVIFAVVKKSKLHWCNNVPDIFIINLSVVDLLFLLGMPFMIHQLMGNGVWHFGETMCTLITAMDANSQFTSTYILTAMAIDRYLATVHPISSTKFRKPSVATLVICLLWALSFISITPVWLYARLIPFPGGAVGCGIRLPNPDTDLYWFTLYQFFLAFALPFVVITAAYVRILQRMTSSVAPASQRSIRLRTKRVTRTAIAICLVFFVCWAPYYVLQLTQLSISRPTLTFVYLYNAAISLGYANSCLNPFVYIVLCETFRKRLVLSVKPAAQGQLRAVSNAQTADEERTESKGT
Protocol: as §1

168 GPCRs [18] = biological target: 168 GPCRs (Homo sapiens, UniProt P21730); conditions: C5AR1, Agonist
Chain of 168 GPCRs (Homo sapiens, UniProt P21730) (P21730 whole entry): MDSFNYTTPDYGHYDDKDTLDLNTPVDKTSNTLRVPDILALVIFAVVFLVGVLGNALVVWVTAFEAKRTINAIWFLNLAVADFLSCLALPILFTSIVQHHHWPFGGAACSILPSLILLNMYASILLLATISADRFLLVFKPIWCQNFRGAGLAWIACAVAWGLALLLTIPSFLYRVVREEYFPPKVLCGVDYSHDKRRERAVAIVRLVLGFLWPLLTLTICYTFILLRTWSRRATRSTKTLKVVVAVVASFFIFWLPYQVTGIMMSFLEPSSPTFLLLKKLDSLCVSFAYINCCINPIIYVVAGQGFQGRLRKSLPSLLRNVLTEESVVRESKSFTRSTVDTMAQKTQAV
Protocol: as §1

168 GPCRs [19] = biological target: 168 GPCRs (Homo sapiens, UniProt O43613)
Chain of 168 GPCRs (Homo sapiens, UniProt O43613) (O43613 whole entry): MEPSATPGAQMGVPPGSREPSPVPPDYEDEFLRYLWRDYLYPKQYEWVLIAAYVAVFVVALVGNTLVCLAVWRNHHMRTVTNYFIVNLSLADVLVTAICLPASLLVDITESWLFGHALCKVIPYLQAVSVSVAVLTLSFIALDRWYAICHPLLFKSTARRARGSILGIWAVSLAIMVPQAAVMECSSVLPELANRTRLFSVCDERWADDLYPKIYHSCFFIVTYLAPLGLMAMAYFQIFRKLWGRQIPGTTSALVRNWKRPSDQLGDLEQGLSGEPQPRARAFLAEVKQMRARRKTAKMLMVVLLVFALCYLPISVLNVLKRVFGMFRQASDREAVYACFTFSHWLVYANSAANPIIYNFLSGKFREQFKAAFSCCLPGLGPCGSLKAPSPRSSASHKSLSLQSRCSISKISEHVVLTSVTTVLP
Protocol: as §1

168 GPCRs [20] = biological target: 168 GPCRs (Homo sapiens, UniProt P23945); conditions: FSHR
Chain of 168 GPCRs (Homo sapiens, UniProt P23945) (P23945 18-695): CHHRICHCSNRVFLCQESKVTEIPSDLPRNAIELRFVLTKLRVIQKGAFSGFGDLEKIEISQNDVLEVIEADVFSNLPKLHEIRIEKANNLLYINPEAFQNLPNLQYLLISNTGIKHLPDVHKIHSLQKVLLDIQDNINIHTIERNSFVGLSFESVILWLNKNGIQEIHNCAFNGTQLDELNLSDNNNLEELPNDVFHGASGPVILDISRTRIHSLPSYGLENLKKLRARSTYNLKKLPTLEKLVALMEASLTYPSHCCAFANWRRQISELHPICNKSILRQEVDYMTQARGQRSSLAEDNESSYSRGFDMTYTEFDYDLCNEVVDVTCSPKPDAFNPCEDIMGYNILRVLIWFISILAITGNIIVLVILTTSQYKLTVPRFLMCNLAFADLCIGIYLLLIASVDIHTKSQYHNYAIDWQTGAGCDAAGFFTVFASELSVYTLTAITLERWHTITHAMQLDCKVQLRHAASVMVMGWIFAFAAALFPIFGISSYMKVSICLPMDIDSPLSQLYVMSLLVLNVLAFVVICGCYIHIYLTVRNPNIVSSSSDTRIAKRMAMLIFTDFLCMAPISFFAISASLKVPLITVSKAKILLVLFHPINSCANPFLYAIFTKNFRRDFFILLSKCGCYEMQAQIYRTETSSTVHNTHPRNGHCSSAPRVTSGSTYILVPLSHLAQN
Protocol: as §1

168 GPCRs [21] = biological target: 168 GPCRs (Homo sapiens, UniProt P43116)
Chain of 168 GPCRs (Homo sapiens, UniProt P43116) (P43116 whole entry): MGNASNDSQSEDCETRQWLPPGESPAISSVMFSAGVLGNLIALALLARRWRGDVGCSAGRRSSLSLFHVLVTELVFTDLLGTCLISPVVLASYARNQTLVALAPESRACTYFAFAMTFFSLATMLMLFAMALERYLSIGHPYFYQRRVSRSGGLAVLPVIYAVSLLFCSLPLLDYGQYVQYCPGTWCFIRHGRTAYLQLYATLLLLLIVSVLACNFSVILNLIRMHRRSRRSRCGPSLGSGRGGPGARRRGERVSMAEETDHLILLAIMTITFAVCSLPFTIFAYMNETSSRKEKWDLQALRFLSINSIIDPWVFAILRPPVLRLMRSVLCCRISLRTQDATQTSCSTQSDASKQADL
Protocol: as §1

CNC(C)C(=O)c1ccc2c(c1)OCO2 (stereo not drawn) [methylone, 3,4-methylenedioxy-N-methylcathinone]
activity at 10 µM (168 GPCRs [1]; CRHR1, Agonist mode, 10 uM): 1.1% | activity at 1 µM (168 GPCRs [1]; CRHR1, Agonist, 1 uM): 1.4% | activity at 10 µM (168 GPCRs [2]; PTGER4, Agonist mode, 10 uM): -1.4% | activity at 1 µM (168 GPCRs [2]; PTGER4, Agonist, 1 uM): -2.8% | activity at 10 µM (168 GPCRs [3]; EBI2, Agonist mode, 10 uM): 0.1% | activity at 1 µM (168 GPCRs [3]; EBI2, Agonist, 1 uM): 0.5% | activity at 10 µM (168 GPCRs [4]; Agonist mode, 10 uM): -5.8% | activity at 1 µM (168 GPCRs [4]; Agonist, 1 uM): -2.9% | activity at 1 µM (168 GPCRs [5]; 1 uM): -0.4% | activity at 10 µM (168 GPCRs [5]; 10 uM): -0.5% | activity at 10 µM (168 GPCRs [6]; GPR92, Agonist mode, 10 uM): -3.5% | activity at 1 µM (168 GPCRs [6]; GPR92, Agonist, 1 uM): -1.6% | activity at 10 µM (168 GPCRs [7]; Agonist mode, 10 uM): -3% | activity at 1 µM (168 GPCRs [7]; Agonist, 1 uM): -2.3% | activity at 10 µM (168 GPCRs [8]; GPR103, Agonist mode, 10 uM): 3.13% | activity at 1 µM (168 GPCRs [8]; GPR103, Agonist, 1 uM): 0.8% | activity at 10 µM (168 GPCRs [9]; GPR35, Agonist mode, 10 uM): 2.5% | activity at 1 µM (168 GPCRs [9]; GPR35, Agonist, 1 uM): 2.2% | activity at 10 µM (168 GPCRs [10]; Agonist mode, 10 uM): -2.3% | activity at 1 µM (168 GPCRs [10]; Agonist, 1 uM): -4.4% | activity at 10 µM (168 GPCRs [11]; Agonist mode, 10 uM): -4.9% | activity at 1 µM (168 GPCRs [11]; Agonist, 1 uM): -2.2% | activity at 10 µM (168 GPCRs [12]; TACR3, Agonist mode, 10 uM): 1.1% | activity at 1 µM (168 GPCRs [12]; TACR3, Agonist, 1 uM): 0.8% | activity at 1 µM (168 GPCRs [13]; 1 uM): -4.5% | activity at 10 µM (168 GPCRs [13]; 10 uM): -5.3% | activity at 10 µM (168 GPCRs [14]; EDG7, Agonist mode, 10 uM): 1.1% | activity at 1 µM (168 GPCRs [14]; EDG7, Agonist, 1 uM): 3% | activity at 10 µM (168 GPCRs [15]; Agonist mode, 10 uM): 0.2% | activity at 1 µM (168 GPCRs [15]; Agonist, 1 uM): -3.5% | activity at 10 µM (168 GPCRs [16]; CXCR7, Agonist mode, 10 uM): -0.8% | activity at 1 µM (168 GPCRs [16]; CXCR7, Agonist, 1 uM): -1.3% | activity at 10 µM (168 GPCRs [17]; MCHR1, Agonist mode, 10 uM): 3.1% | activity at 1 µM (168 GPCRs [17]; MCHR1, Agonist, 1 uM): 3.9% | activity at 1 µM (168 GPCRs [18]; 1 uM): -1% | activity at 10 µM (168 GPCRs [18]; 10 uM): -1.3% | activity at 10 µM (168 GPCRs [19]; HCRTR1, Agonist mode, 10 uM): -0.1% | activity at 1 µM (168 GPCRs [19]; HCRTR1, Agonist, 1 uM): -0.1% | activity at 10 µM (168 GPCRs [20]; Agonist mode, 10 uM): 2.2% | activity at 1 µM (168 GPCRs [20]; Agonist, 1 uM): -1% | activity at 10 µM (168 GPCRs [21]; PTGER2, Agonist mode, 10 uM): -3.1% | activity at 1 µM (168 GPCRs [21]; PTGER2, Agonist, 1 uM): -1.4%
